Assay results: ChEMBL document CHEMBL1133380, “3-Imidazolylmethylaminophenylsulfonyltetrahydroquinolines, a novel series of farnesyltransferase inhibitors” (Bioorg Med Chem Lett, 2000)

Molecular target: Protein farnesyltransferase (Homo sapiens, UniProt P49354+P49356)
Test: Inhibition of Farnesyltransferase
Type: protein-complex assay

Structure (SMILES)	IC50
CSCC[C@H](NC(=O)[C@@H]1Cc2ccccc2CN1C(=O)[C@@H](NC[C@@H](N)CS)C(C)C)C(=O)O	0.6 nM
CSCC[C@H](NC(=O)[C@@H]1Cc2ccccc2CN1C(=O)[C@@H](NCCc1cnc[nH]1)C(C)C)C(=O)O	0.8 nM
N#Cc1cccc(CN(Cc2c[nH]cn2)c2cccc(S(=O)(=O)N3CCCc4ccccc43)c2)c1	570 nM
O=S(=O)(c1cccc(N(Cc2cnc[nH]2)Cc2cnc[nH]2)c1)N1CCCc2ccccc21	130 nM
CCCCOc1ccc(S(=O)(=O)N2CCCc3ccccc32)cc1N(Cc1cnc[nH]1)Cc1cnc[nH]1	480 nM
O=S(=O)(c1cccc(NCc2cnc[nH]2)c1)N1CCCc2ccccc21	15000 nM
